# Results published in patent publication US20240158851A1, “METHOD FOR […] ADDICTION, METHOD FOR SCREENING THERAPEUTIC AGENT FOR DRUG ADDICTION AND PHARMACEUTICAL COMPOSITION FOR PREVENTING OR TREATING DRUG ADDICTION” (KOREA INSTITUTE OF SCIENCE AND TECHNOLOGY, priority 2020, published 2024).
# What was measured:
# SYNCRIP [1] = test: SYNCRIP expression in brain striatum by qPCR; details: drug addiction animal model (MA) vs control group
# miR-137 [2] = test: Serum miR-137 (qPCR) in mild drug-addicted animal model with striatal SYNCRIP overexpression; details: mild drug addiction: methamphetamine 1.0 mg/kg i.p. once every other day for 2 weeks; lentivirus into striatum 4 weeks before
# hyperactivity = test: Open field test of methamphetamine-induced hyperactivity; format: in vivo, mouse; details: open field 20 min after methamphetamine 4.0 mg/kg
# Protocol: Before methamphetamine injection into each animal model, an open field test was conducted for 20 min to measure the activity of the animal model, which was used as a baseline.
# 4.0 mg/kg of methamphetamine was administered to the control group (Comparative group 1) and an open field test was again conducted for 20 min to measure the activity of the animal model.
# 4.0 mg/kg of methamphetamine was administered to the drug addiction animal model (MA) (Comparative group 2) and an open field test was again conducted for 20 min to measure the activity of the animal model.
# Finally, the activity of each group was compared with the baseline and the activity increase was expressed as a percentage relative to the baseline.
# SYNCRIP [3] = test: SYNCRIP expression in brain striatum by Western blotting; details: drug addiction animal model (MA) vs control group
# [4] = test system: egocentric spatial learning; test: Water cross maze test of egocentric spatial learning; details: probe test after 3 days learning; lentivirus injected into striatum after drug addiction
# miR-137 [5] = test: Serum miR-137 (qPCR) in drug-addicted (gradual ramp-up) animal model with striatal SYNCRIP overexpression; details: gradual ramp-up methamphetamine protocol, one week withdrawal; lentivirus into striatum 4 weeks before
# miR-137 [6] = test: miR-137 expression (qPCR) in striatum and serum of methamphetamine drug addiction animal model; details: drug addiction animal model (MA) vs control group, gradual ramp-up protocol, one week withdrawal
smiles,measurement,setting,value
CN[C@@H](C)Cc1ccccc1 [methamphetamine],expression level of SYNCRIP in brain striatum (qPCR),SYNCRIP [1],decreased but was significantly higher
same,expression level of serum miR-137,miR-137 [2],significantly low
same,hyperactivity (activity increase relative to baseline),hyperactivity,significantly increased
same,expression level of SYNCRIP in brain striatum (Western blotting),SYNCRIP [3],decreased to a significantly lower level
same,egocentric spatial learning (percent of mice),[4],abnormally enhanced
same,expression level of miR-137 in serum,miR-137 [5],significantly reduced
same,expression level of miR-137 in serum,miR-137 [6]; serum,significantly low
same,expression level of miR-137 in striatum,miR-137 [6]; striatum,significantly high
